Results taken from US4968706A, “Ethers and thioethers having therapeutical activity, their preparation and pharmaceutical compositions containing them” (priority 1987, dated 1990).

How the values were obtained:
[1] = test system: tracheo-bronchial mucus secretion; assay: Red phenol secretion in BAL (mucus secretion); assay type: in vivo, Albino Swiss male mice
Procedure: (§1) The ability of a drug to modify the tracheo-bronchial mucus secretion is evaluated measuring the excretion of a dyestuff in the respiratory tree.
(§2) Albino Swiss male mice are used in this test and the animals are killed 30 minutes after dye treatment. The dye content in BAL's is evaluated spectrometrically at 546 nm.
An increased red phenol secretion in BAL's after drug treatment means stimulation of mucus production.

[2] = test system: tracheo-bronchial mucus secretion; assay: Time-course of red phenol excretion (long-lasting action); assay type: in vivo, Albino Swiss male mice
Procedure: as §2
Infact, a substance can be administered 2, 1 and 1/2 hours before the intraperitoneal administration of the red phenol marker. If the animals are killed, as usual, half an hour after the dyestuff treatment, the overall time of drug action increases from 1 hr to 11/2 and 21/2 hrs respectively.

[3] = test system: tracheo-bronchial mucus secretion; assay: Uranine secretion in BAL (mucus secretion); assay type: in vivo, Albino Swiss female mice
Procedure: as §1
The animals are sacrified 30 minutes after; the respiratory tree is excised and accurately washed. The washing fluids (BAL) are collected and evaluated for the uranine content using a spectrofluorimetric technique.
as §2

[4] = test system: hyperreactive spasmus induced by acetylcholine challenge; assay: Hyperreactive spasmus induced by acetylcholine challenge in anaesthetized guinea-pigs submitted to forced tobacco-smoking respiration; assay type: in vivo; details: for activity as reference substance in the acetylcholine challenge procedure: i.m. administration
[5] = test system: tracheo-bronchial mucus secretion; details: known effect of therapeutically active drugs; cited from earlier work
[6] = 100 mg/kg os, overall experiment 1 1/2 hours
[7] = 100 mg/kg os, overall experiment 2 1/2 hours
[8] = 100 mg/kg os, overall experiment 1 hour

| Structure (SMILES) | % increase of dyestuff secretion in BAL (vs. untreated animals), red phenol ([1]; 25 mg/kg os) [%] | % increase of dyestuff secretion in BAL (vs. untreated animals), red phenol ([1]; 50 mg/kg os) [%] | % increase of dyestuff secretion in BAL (vs. untreated animals), red phenol ([1]; 100 mg/kg os) [%] | Time-course of % increase of red phenol excretion (vs. untreated animals) [2, 6] [%] | Time-course of % increase of red phenol excretion (vs. untreated animals) [2, 7] [%] | Time-course of % increase of red phenol excretion (vs. untreated animals) [2, 8] [%] | % increase of dyestuff secretion in BAL (vs. untreated animals), uranine ([3]; 25 mg/kg os) [%] | % increase of dyestuff secretion in BAL (vs. untreated animals), uranine ([3]; 50 mg/kg os) [%] | % increase of dyestuff secretion in BAL (vs. untreated animals), uranine ([3]; 100 mg/kg os) [%] | activity as reference substance in the acetylcholine challenge procedure [4] | uranine content in the BAL's in respect to control values (in words) [5] | reduction of hyperreactive spasmus induced by acetylcholine challenge ([4]; e.v. treatment, 5 to 30 mg/kg, forced tobacco-smoking respiration) | % increase of dyestuff secretion in BAL (vs. untreated animals), red phenol ([1]; 200 mg/kg os) [%] | Time-course of % increase of red phenol excretion (vs. untreated animals) ([2]; 200 mg/kg os, overall experiment 1 1/2 hours) [%] | Time-course of % increase of red phenol excretion (vs. untreated animals) ([2]; 200 mg/kg os, overall experiment 2 1/2 hours) [%] | Time-course of % increase of red phenol excretion (vs. untreated animals) ([2]; 200 mg/kg os, overall experiment 1 hour) [%] | % increase of dyestuff secretion in BAL (vs. untreated animals), uranine ([3]; 200 mg/kg os) [%] |
| --- | --- | --- | --- | --- | --- | --- | --- | --- | --- | --- | --- | --- | --- | --- | --- | --- | --- |
| COc1ccccc1OCC1COC(CSCC(=O)NCc2cccnc2)O1 (centres unmarked) [Substance D, N-(3-pyridyl)methyl-3-thia-4-[4-(2-methoxy-phenoxy)-methyl-(Z,E)-(1,3)-dioxolan-2-yl]-butanoic acid amide] | 49 | 120 | 179 | 111 | 58 | 179 | 66 | 132 | 284 |  |  |  |  |  |  |  |  |
| C[C@H]1C[C@@H]2[C@H]([C@@H](O)C[C@@]3(C)[C@H]2CC[C@]3(O)C(=O)CO)[C@@]2(C)C=CC(=O)C=C12 [6-α-methylprednisolone] |  |  |  |  |  |  |  |  |  | Positive |  |  |  |  |  |  |  |
| O=C(O)c1cc(=O)c2c(OCC(O)COc3cccc4oc(C(=O)O)cc(=O)c34)cccc2o1 [sodium dichromoglicate] |  |  |  |  |  |  |  |  |  | Positive |  |  |  |  |  |  |  |
| CN(Cc1cc(Br)cc(Br)c1N)C1CCCCC1 [Substance E, bromexine, reference compound] | 28 | 69 | 83 | 61 | 21 | 98 | 0 | 50 | 63 |  | increase the uranine content in the BAL's in a dose dependent way |  |  |  |  |  |  |
| COc1ccccc1OCC1COC(CSCC(=O)O)O1 (centres unmarked) [Substance C, 3-thia-4-[4-(2-methoxy-phenoxy)methyl-(Z,E)-dioxolan-2-yl]-butanoic acid] | 47 | 83 | 143 | 72 | 42 | 143 | 25 | 52 | 101 |  |  |  |  |  |  |  |  |
| COc1ccccc1OCCSCC(=O)NCc1cccnc1 [Substance B, N-(3-pyridyl)methy 1-3-thia-5 (2-methoxy-phenoxy)pentanoic acid amide] | 12 | 73 | 126 | 119 | 62 | 126 | 70 | 140 | 190 |  |  | able to reduce the hyperreactive spasmus induced by acetylcholine challenge in dose dependent way |  |  |  |  |  |
| COc1ccccc1OCCSCC(=O)O [Substance A, 3-thia-5-(2-methoxy-phenoxy)-pentanoic acid] | 25 | 50 | 104 | 98 | 62 | 104 | 45 | 98 | 138 |  |  |  |  |  |  |  |  |
| CC1=CCC(C(C)(C)O)CC1O (centres unmarked) [Substance F, sobrerol, reference compound] |  | 48 | 69 |  |  |  |  | 54 | 104 |  | increase the uranine content in the BAL's in a dose dependent way |  | 111 | 73 | 30 | 108 | 144 |
